We go through five substances from US20260347401A1, “Peptide Fragment And Use Thereof” (TOAGOSEI CO., LTD., priority 2023, published 2026).

FAM = 5(6)-carboxyfluorescein

This assay has as its system NSC-34 cells. Briefly: Evaluation of cell membrane permeability by flow cytometry (fluorescence of FAM taken up by NSC-34 cells). The following applies: for median fluorescence intensity (MFI): 10 μM in culture solution, 0.50% DMSO, 37 °C, 5% CO2, flow cytometer detector FL2; for median fluorescence intensity (MFI) / MFI compared with Example 3 (FAM): 20 hours; for MFI compared with Example 3 (FAM): 10 μM, result in words; for cell membrane permeability: peptide fragment, tested as FAM construct, conclusion in words. Type of assay: cell-based, mouse. As to the method: As the eukaryotic cells, NSC-34 cells (mouse motor neuron-like hybrid cell line) were used and the cell membrane permeability of the prepared construct was evaluated.
The NSC-34 cell was cultured in 10% fetal bovine serum (FBS)-containing Dulbecco's modified Eagle's medium (DMEM (Cat No. 044-29765, manufactured by FUJIFILM Wako Pure Chemical Corporation)), which is a culture medium.
The NSC-34 cell that adhered to a culture plate was cleaned with PBS and then, a 0.25%-trypsin/EDTA solution was added thereto, and incubation was performed for three minutes at 37 °C. After the incubation, the aforementioned 10% FBS-containing DMEM was added to deactivate trypsin and then, five-minute centrifugal separation was performed at 150×g to precipitate the cells. After the supernatant generated by the centrifugal separation was removed, the 10% FBS-containing DMEM was added to the precipitate (cell pellet) to prepare a cell suspension of about 2×10^5 cells/mL. The cell suspension was added by 1 mL to a well of a commercially available six-hole (well) plate (manufactured by AGC TECHNO GLASS Co., Ltd.) so as to seed the cell (about 2×10^5 cells/well), and incubation was caried out for about two to three hours until the cell adhered to a bottom surface of the well. After that, the 2 mM sample solution 1 prepared as above was diluted with the 10% FBS-containing DMEM to prepare the sample solution 1 in which the concentration of the sample was 20 μM. Then, 1 mL of the 20 μM sample solution 1 was added to the well (that is, so that the concentration of the construct 1 became 10 μM and the DMSO concentration became 0.50% in the culture solution in the well). The cell was incubated for 20 hours at 37 °C under a 5% CO2 condition.
After the 20-hour incubation, the culture supernatant was removed from the well and the cells in the well were cleaned twice with 1 mL of PBS. Next, 100 μL of the 0.25% trypsin/EDTA solution was added to the well and the incubation was performed for three minutes at 37 °C. After the incubation, 900 μL of the 10% FBS-containing DMEM was added to the well to deactivate the trypsin. The cell suspension in the well was transferred to a tube and the cells were collected. After that, pre-washing was performed additionally, so that the cells remaining in the well were collected in the tube. This tube was subjected to five-minute centrifugal separation at 4 °C under a condition of 210×g. After the centrifugal separation, the supernatant was removed and the precipitate (cell pellet) was suspended (cleaned) with 1 mL of PBS, which was followed by the centrifugal separation under the same condition as that described above. Then, the supernatant was removed and thus, the cells (cell pellet) cultured in a culture medium containing the sample were obtained.
Regarding the obtained cells (cell pellet), the cell membrane permeability was analyzed using a flow cytometer. As the flow cytometer, On-Chip Flowcytometer (manufactured by On-Chip Biotechnologies Co., LTD.) was used.
For such an analysis, the obtained cell pellet was suspended with 50 μL of on-chip T buffer to prepare a cell suspension for analysis.
Using the aforementioned flow cytometer, gating based on forward scatter (FSC) and side scatter (SSC) was performed to set a gate about a cell group to be analyzed, and the fluorescence intensity was measured about the cell group in this gate. Note that the number of cells of the cell group to be analyzed was set to at least 10000, and the analysis was performed. The fluorescence intensity was measured using a fluorescence detector FL2 of the flow cytometer (optimum detection wavelength around 543 nm) capable of detecting the fluorescence wavelength of FAM. Regarding this measurement result, the analysis was performed using commercially available analysis software “FlowJo” (manufactured by TreeStar) to obtain median fluorescence intensity (MFI) of the cell group to be measured (see Table 1). […]
In general terms: In flow cytometry, cells or beads pass a laser one at a time.

Regarding “5(6)-carboxyfluorescein [Example 3, reference compound]”, the “median fluorescence intensity (MFI)” value is 7.28.

In the case of “Ac-VLSRVQLREKLTR-FAM (Ac-VLSRVQLREKLTR-{FAM}) [Example 2]”, the “median fluorescence intensity (MFI)” value is recorded as 31.3 and the “MFI compared with Example 3 (FAM)” value is listed as “higher”.

On to Ac-VLSRVVQLLREKLTRKK-FAM [Example 1], for which the “median fluorescence intensity (MFI)” value worked out at 30.4 and the “MFI compared with Example 3 (FAM)” value is given as “higher”.

Consider “VLSRVQLREKLTR [SEQ ID No.: 2, peptide fragment (synthetic peptide) having cell membrane permeability]”, for which the cell membrane permeability result is reported as “has the cell membrane permeability”.

For “VLSRVVQLLREKLTRKK [SEQ ID No.: 1, peptide fragment (synthetic peptide) having cell membrane permeability]”, the cell membrane permeability result was “has the cell membrane permeability”.
